Laboratory results taken from patent US12383534B2, “Methods for treating cancer” (REGENTS OF THE UNIVERSITY OF MINNESOTA, priority 2021, dated 2025).

Columns and labels:
[1] = test system: NCC-CDS-X1 and Kitra-SRS cell cultures; test: Morphology of monolayer CDS cell cultures; type: cell-based, human; conditions: both CDS cell lines
Procedure: (§1) To evaluate the consequences of iP300w treatment of CDS cells, its effects on both monolayer cultures as well as 3D spheres was determined in both CDS cell lines. Inhibition of proliferation was morphologically apparent as early as 24 hours after iP300w treatment and progressed with time (FIG. 2A). Using the cell viability assay, it was determined that 0.003 μM was the lowest effective concentration on day 2 in both lines (FIG. 2B).

[2] = test system: Kitra-SRS cells (CIC-DUX4 sarcoma cell line); test: Cell viability (ATP) assay in Kitra-SRS cells; type: cell-based, human; conditions: day 2
Procedure: (§2) Basal media were purchased from HyClone, fetal bovine serum (FBS) was from PeakSerum (Ps-FB3, lot 293Q16), and Glutamax (Glu) and Penicillin/Streptomycin (P/S) were from GIBCO. NCC-CDS-X1 (CIC-DUX4 sarcoma cell line, a generous gift from Tadashi Kondo) cell line was cultured in RPMI with 10% FBS, Glu and P/S, Kitra-SRS (CIC-DUX4 sarcoma cell line, a generous gift from Hidetatsu Otani), 3T3, 293T and C2C12 cell lines were cultured in DMEM/10% FBS/Glu/P/S. The immortalized human myoblast LHCN-M2 cell line was cultured in proliferation medium: F10 supplemented with 20% FBS, 2-mercaptoethanol 1× (GIBCO), 10^−9 M dexamethasone (Sigma), 10 ng/mL bFGF (Peprotech), and Glu/P/S. All cells were cultured at 37° C. in a 5% CO2 atmosphere.
(§3) Cell lines were plated in a 96 well dish (1×10^5 cells/well), and the following day were treated with iP300w or its stereoisomers. ATP assays were performed using CellTiter-Glo® Luminescent Cell Viability Assay (Promega) according to the manufacturer's instructions. Luminescence was analyzed on POLARstar Optima Microplate Reader (BMG Labtech, Offenburg, Germany).
as §1, with “Inhibition of proliferation was morphologically apparent as early as 24 hours after iP300w treatment and progressed with time (FIG. 2A).” left out

[3] = test system: CIC-DUX4 target genes ETV1, 4, and 5; test: RT-qPCR for CIC-DUX4 target genes in NCC-CDS-X1 cells; type: cell-based, human; conditions: NCC-CDS-X1, 24 hours, 0.03 and 0.3 μM
Procedure: (§4) RNA was extracted using an RNA extraction kit (Zymo) and cDNA was made using 0.5 μg total RNA with oligo-dT primer and Verso cDNA Synthesis Kit (Thermo Scientific) following the manufacturer's instructions. qPCRs were performed by using Premix Ex Taq (Probe qPCR, Takara) or SYBR-green. Gene expression levels were normalized to that of GAPDH and analyzed with 7500 System Software using the ACT method (Applied Biosystems). RNA-seq library preparation was done with 500 ng total RNA from NCC-CDS-X1 cells treated for 4 or 24 hours with iP300w (0.3 μM) using the Swift Rapid RNA Library Kit (SwiftBioscience). 36 base paired-end sequencing was performed on an Illumina NextSeq instrument at the University of Minnesota Genomics Center.
Next, the effect of the stereoisomers on the CIC-DUX4 target genes in cells cultured with the compounds for 24 hours was analyzed.

NCC-CDS-X1 cells = test: Immunofluorescence for Ki-67 in NCC-CDS-X1 cells; type: cell-based, human; conditions: NCC-CDS-X1, 24 hours, 0.3 μM
Procedure: For western blot analyses, cells were lysed with RIPA buffer supplemented with protease inhibitor cocktail (Complete, Roche), and proteins were separated on 10% SDS-PAGE gels, then transferred to PVDF membranes. Antibodies were diluted in 5% skim milk in TBST and incubated overnight at 4° C. or 1 hour at RT. An appropriate secondary HRP conjugated antibody was incubated for 1 hour at RT. Membranes were then washed with TBST, and signal was visualized using Pierce ECL western blotting substrate (Thermo Scientific). For immunofluorescence, cells cultured in 96 well plates were fixed in 4% PFA for 10 min., washed twice with PBS, permeabilized with 0.3% Triton X for 30 min, and blocked with 3% BSA for 1 hour at R/T. Primary antibodies were diluted in 3% BSA and incubated o/n at 4° C. An appropriate conjugated secondary antibody was applied for 60 min at RT. Nuclei were visualized using DAPI (1:5000, Sigma). […]

LCHN-Myoblast = test: ATP assay on LCHN-Myoblast; type: cell-based, human; conditions: after 3 days of treatment (FIG. 10C)
Procedure: as §2
as §3, with “Germany). […]” for “Germany).”

[4] = test system: ETV1, 4, and 5 in 3T3-CIC-DUX4, C2C12-CIC-DUX4 and LHCN-CIC-DUX4 cell lines; test: RT-qPCR for CIC-DUX4 target genes in cell lines overexpressing CIC-DUX4; type: cell-based, mouse and human; conditions: each CIC-DUX4 overexpressing cell line, 18 hours
Procedure: Viral supernatants were produced in 293T cells. For transducing mouse cells (3T3 and C2C12), the CIC-DUX4 expression vector was packed with pCL-Eco, and for infecting human cells (293T, LHCN-M2) with psPAX2 and pMD2.G using FUGENE 6 (Roche). Viral supernatant was collected at 48 hours and 72 hours post-transfection and applied to the cells. Two days post-infection GFP positive cells were sorted using a BD FACSAria II. Established cell lines were tested for CIC-DUX4 expression by immunofluorescence and RT-qPCR.
as §4, with “Center. […]” for “Center.”

## CNC(=O)Cn1cc(-c2ccc3c(c2)[C@H](F)C[C@]32NC(=O)N(CC(=O)N(Cc3ccc(F)cc3)[C@@H](C)C(F)(F)F)C2=O)cn1 (single isomer, unassigned) [iP300w]
[1]
  time at which inhibition of proliferation is morphologically apparent: 24 hours
[2]
  lowest effective concentration in cell viability assay: 0.003 µM
[3]
  down-regulation of direct CIC-DUX4 targets ETV1, 4, and 5: Significant down-regulation
NCC-CDS-X1 cells
  Ki-67 positive staining: almost complete absence of Ki-67 positive staining
LCHN-Myoblast
  concentration giving mild suppression of proliferation: ≥ 0.3 µM
[4]
  effect on CIC-DUX4-induced ETV1, 4, and 5: reversible
